From patent US9587001B2, “Conjugated knottin mini-proteins containing non-natural amino acids” (priority 2012, dated 2017)
Starred links: 1 amine or outer side, 2 acyl side, 3 side chain; linkers in the order of their positions; H or OH if unused. Positions of bridges follow the written chain, without caps; N, C: chain ends. Non-standard residues stand in square brackets, D forms with d. Residues, ends and D or L forms follow the SMILES beside them. Primed or numbered codes have the meaning given here. Chains are numbered I, II in the order given. No end group written: not given here. AO″ = AO: aminooxy residue, 2-amino-3-(2-(aminooxy)acetamido)propanoic acid (side chain carries R'-O-NH2), O=C(CON[*:3])NC[C@H](N[*:1])C(=O)[*:2]; X1 = O=C(NCCCOCCCCOCCCNC(=O)c1ccc(C=NOCC(=O)[*:2])cc1)c1ccc(C=NOCC(=O)[*:1])cc1; Dap = NC[C@H](N)C(=O)O

Experiments:
[1] = system: SKOV 3 (Ovarian adenocarcinoma); assay: Inhibition of proliferation, SKOV 3 carcinoma line; type: cell-based; conditions: Cell line: SKOV 3
Procedure: (§1) Dimers of the present knottins with AO groups incorporated at different positions were prepared and conjugated with different linkages. There were tested for activity against carcinoma lines. As identified there, Dimer 1 is EETI 2.5F where the AO group was incorporated in place of Lys15, conjugated through the 17.3 Angstrom linker shown in FIG. 1B; Dimer 2 is EETI 2.5F, where the AO group was incorporated in place of Lys15, conjugated though the 68.5 Angstrom linker shown in FIG. 9. Dimer 3 is EETI 2.5F, where the AO group was incorporated at the C-terminus following residue 33, conjugated through a 17.3 Angstrom linker shown in FIG. 1B; Dimer 4 is EETI 2.5F, where the AO group was incorporated at the C-terminus following residue 33, conjugated through the 68.5 Angstrom linker shown in FIG. 9. […] Also, it was observed that the length of the linkage had only a minor effect on binding. Binding, of course, it correlated with the activity in proliferation and apoptosis.

[2] = system: MDA231 (Human breast adenocarcinoma); assay: Inhibition of proliferation, MDA231 carcinoma line; type: cell-based; conditions: for Proliferation: Cell line: MDA231; for inhibition of tumor cell proliferation, comparison between dimers, monomer and Cilengitide: Table 3 results
Procedure: as §1

[3] = system: MDA231 (Human breast adenocarcinoma); assay: Apoptosis (Caspase-3), MDA231 carcinoma line; type: cell-based; conditions: Cell line: MDA231
Procedure: as §1

U87MG cells [4] = type: cell-based, human; conditions: for EC50: U87MG cells on fibronectin coated plates, 1 h at 37° C., read-out: Adhesion EC50
Procedure: FIG. 3A is a graph measuring comparative inhibition of adhesion of U87MG cells treated with dimeric and monomeric 2.5F to fibronectin, a component of ECM. Fibronectin coated plates were incubated with U87MG cells with the indicated concentrations of peptides. Adherent cells remaining after several wash steps were quantified with crystal violet staining by absorbance at 600 nm. […] Values were normalized to negative control containing no competing peptides.
FIG. 7 is a graph measuring comparative inhibition of adhesion of U87MG cells treated with dimeric and monomeric 2.5F or Cilgenitide to fibronectin, a component of ECM. Fibronectin coated plates were incubated with U87MG cells with the indicated concentrations of peptides. Adherent cells remaining after several wash steps were quantified with crystal violet staining by absorbance at 600 nm. Values were normalized to negative control containing no competing peptides.
Varying concentrations of peptides were added to 4×10^4 cells in 100 μl of IBB, incubated for 1 h at 37° C., 5% CO2, and gently washed with Dulbecco's PBS (DPBS, Invitrogen). Remaining adherent cells were incubated with 100 μl of 0.2% crystal violet and 10% ethanol for 10 min at room temperature, washed in DPBS and solubilized with 100 μl/well of a 50:50 mixture of 100 mM sodium phosphate, pH 4.5 and ethanol for 10 min. The absorbance at 600 nm was measured using Synergy HT microplate reader (BioTek).

U87MG cells [5] = assay: Cytotoxicity / inhibition of proliferation of U87MG cells (AlamarBlue); type: cell-based, human
Procedure: FIG. 4A is a bar graph showing time dependent cytotoxicity of U87MG cells after treatment with the indicated knottin mini-proteins. Cytotoxicity was monitored by incubating U87MG cells on culture plates with 500 nM of each knottin in 4% FBS media at 37° C. and 5% CO2 and measuring cell viability at 24, 48, and 72 h after the treatment using the AlamarBlue indicator dye.
FIG. 4B is a bar graph showing dose dependent cytotoxicity of U87MG cells assessed by treating with different concentrations of knottins for 72 h and measuring cell viability using the AlamarBlue indicator dye.
FIG. 8 is a bar graph showing dose dependent cytotoxicity of U87MG cells assessed by treating with different concentrations of dimeric or monomeric 2.5F or Cilgenitide for 72 h and measuring cell viability using the AlamarBlue indicator dye.

[6] = system: U87MG cells expressing αvβ3, αvβ5, and α5β1 integrins; assay: Competition binding assay to U87MG cells (flow cytometry); parameters: species or system human; conditions: for IC50: 4° C. for 10 h, average of three experiments; for increase of apparent binding affinity of dimer compared to the monomer: from IC50 values
Procedure: FIG. 2B is a graph showing a competition assay of EETI-based integrin binding proteins 2.5F dimer and 2.5F monomer to U87MG cells, as measured by flow cytometry. Alexa488-labeled EETI 2.5F was used as a competitor. Monomeric EETI 2.5F with an introduced aminooxy residue is designated as 2.5F_AO.
FIG. 2C is a graph showing a competition assay of AgRP-based integrin binding proteins: dimeric 7C and monomeric 7C to U87MG cells, as measured by flow cytometry. Alexa488-labeled AgRP 7C was used as a competitor. Monomeric AgRP 7C with aminooxy residue is designated as Monomeric 7C_AO.
Alexa488-labeled EETI 2.5F was used as a competitor.
Competition binding assays were performed to measure the relative binding affinities of engineered knottins to U87MG cells expressing αvβ3, αvβ5, and α5β1 integrins (FIG. 2A, 2B, 2C). 2×10^5 U87MG cells were incubated at 4° C. for 10 h in integrin binding buffer (20 mM Tris pH 7.5, 1 mM MgCl2, 1 mM MnCl2, 2 mM CaCl2, 100 mM NaCl, and 0.1% BSA) and varying concentrations of the peptides with 0.25 nM of Alexa488-labeled EETI 2.5F as a competitor for dimeric and monomeric EETI 2.5F, and 5 nM of Alexa488-labeled AgRP 7C as a competitor for dimeric and monomeric AgRP 7C. Half-maximal inhibitory concentration (IC50) values were determined by nonlinear regression analysis using KaleidaGraph (Synergy Software), and are presented as the average of three separate experiments.

U87MG cells [7] = assay: U87MG cell morphology after knottin treatment (microscope images); type: cell-based, human; conditions: 500 nM, 24 h, DMEM media with 4% FBS
Procedure: FIG. 3B is a panel of microscope images of the U87MG cells on culture plates after 24 h treatment with 500 nM of the indicated knottins.

[8] = 0.25 nM Alexa488-labeled EETI 2.5F as competitor

| Compound | Proliferation [1] | Proliferation [2] | inhibition of tumor cell proliferation, comparison between dimers, monomer and Cilengitide [2] | Apoptosis (Caspase-3) [3] | inhibition of U87MG cell adhesion to fibronectin (in words) (U87MG cells [4]; fibronectin-coated plates) | inhibition of U87MG cell proliferation (U87MG cells [5]; 10 nM, 72 hours) | inhibition of U87MG cell proliferation (U87MG cells [5]; 100 nM, 72 hours) | inhibition of U87MG cell proliferation (U87MG cells [5]; 500 nM, 24 h) | inhibition of U87MG cell proliferation (U87MG cells [5]; 500 nM, 48 h) | inhibition of U87MG cell proliferation (U87MG cells [5]; 500 nM, 72 h) | inhibition of U87MG cell proliferation (U87MG cells [5]; 1000 nM, 72 hours) | IC50 [6, 8] | EC50 (U87MG cells [4]) | U87MG cell morphology (U87MG cells [7]) | increase of apparent binding affinity of dimer compared to the monomer [6] | other results |
| --- | --- | --- | --- | --- | --- | --- | --- | --- | --- | --- | --- | --- | --- | --- | --- | --- |
| 2.5F Dimer2: EETI 2.5F, AO in place of Lys15, conjugated though the 68.5 Angstrom linker shown in FIG. 9 (GCPRPRGDNPPLTC[AO″]QDSDCLAGCVCGPNGFCG; ends and bridges not checked; also: dimer (Dimer2) conjugated through 68.5 Angstrom linker via AO15) | Strong inhibition | Strong inhibition | more strongly inhibited tumor cell proliferation compared to Dimers 3 and 4 |  |  |  |  |  |  |  |  |  |  |  |  |  |
| CC(C)[C@H]1C(=O)N[C@@H](CCCN=C(N)N)C(=O)NCC(=O)N[C@@H](CC(=O)O)C(=O)N[C@H](Cc2ccccc2)C(=O)N1C [Cilengitide, reference compound] |  | Weak inhibition |  | Moderate induction | does not inhibit |  |  |  |  |  |  |  |  |  |  |  |
| CC(C)C[C@@H]1NC(=O)[C@@H]2CSSC[C@@H](C(=O)NCC(=O)O)NC(=O)[C@H](Cc3ccccc3)NC(=O)CNC(=O)[C@H](CC(N)=O)NC(=O)[C@@H]3CCCN3C(=O)CNC(=O)[C@@H]3CSSC[C@H](NC(=O)[C@H]([C@@H](C)O)NC(=O)[C@H](CC(C)C)NC(=O)[C@@H]4CCCN4C(=O)[C@@H]4CCCN4C(=O)[C@H](CC(N)=O)NC(=O)[C@H](CC(=O)O)NC(=O)CNC(=O)[C@H](CCCNC(=N)N)NC(=O)[C@@H]4CCCN4C(=O)[C@H](CCCNC(=N)N)NC(=O)[C@@H]4CCCN4C(=O)[C@@H](NC(=O)CN)CSSC[C@H](NC(=O)CNC(=O)[C@H](C)NC1=O)C(=O)N[C@@H](C(C)C)C(=O)N3)C(=O)N[C@@H](CCCCN)C(=O)N[C@@H](CCC(N)=O)C(=O)N[C@@H](CC(=O)O)C(=O)N[C@@H](CO)C(=O)N[C@@H](CC(=O)O)C(=O)N2 [EETI 2.5F] (H-GCPRPRGDNPPLTCKQDSDCLAGCVCGPNGFCG-OH; disulfide 2-24, 14-26, 20-32) |  | Weak inhibition |  | Moderate induction | able to inhibit | 15% | 30% | 37% | 44% | 50% | 60% | 1.64 ± 0.03 nM | 180 ± 14 nM | rounded morphology |  |  |
| I: GCPRPRGDNPPLTC[Dap]QDSDCLAGCVCGPNGFCG / II: GCPRPRGDNPPLTC[Dap]QDSDCLAGCVCGPNGFCG (disulfide I:2-I:24, I:14-I:26, I:20-I:32, II:2-II:24, II:14-II:26, II:20-II:32; linker I:15-II:15 via X1) [EETI 2.5F Dimer] | Strong inhibition | Strong inhibition | more strongly inhibited tumor cell proliferation compared to Dimers 3 and 4 | Strong induction | able to inhibit | 28% | 52% | 53% | 68% | 69% | 70% | 0.036 ± 0.002 nM | 8 ± 2 nM | rounded morphology | approximately 46 fold | more potent at inhibiting cell proliferation compared to Cilengitide (U87MG cells [5]; U87MG cells, 72 h): 100 fold; more effective in preventing U87MG cell adhesion compared to the monomer (U87MG cells [4]; fibronectin-coated plates): 100 fold |
| I: GCVRLHESCLGQQVPCCDPAATCYCYGRGDNDLRCYC[Dap] / II: GCVRLHESCLGQQVPCCDPAATCYCYGRGDNDLRCYC[Dap] (disulfide I:2-I:17, I:9-I:23, I:16-I:37, I:25-I:35, II:2-II:17, II:9-II:23, II:16-II:37, II:25-II:35; linker I:38-II:38 via X1) [AgRP 7C Dimer] |  |  |  |  |  |  |  |  |  |  |  |  |  |  | ~4 fold | IC50 ([6]; 5 nM Alexa488-labeled AgRP 7C as competitor): 3.2 ± 0.6 nM |
| scrambled EETI FNRDG monomer [FNRDG_AO, reference compound] |  |  |  |  | not able to inhibit cell adhesion |  |  |  |  |  |  |  |  |  |  | inhibition of U87MG cell proliferation (in words) (U87MG cells [5]; scrambled controls): did not induce significant inhibition; binding (in words) ([6]; scrambled controls): negligible binding |
